Results reported in ChEMBL document CHEMBL1201862, “PubChem BioAssay data set” (2004).
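How tested: cells in 96-well plates exposed to compound for 48 hours at five concentrations. Here, GI50 denotes the concentration required for 50% inhibition of growth.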 Activity calls are given as the source filed them. Cut-off read from the data, not from the text of the source: active = GI50 up to about 1.1 µM and inactive = higher.

Legend:
Test in all cases: NCI tumour cell line growth inhibition, 48 h
OVCAR-4 = test system: OVCAR-4
T47D = test system: T47D
HOP-92 = test system: HOP-92
SW-620 = test system: SW-620
HCT-15 = test system: HCT-15
HCC 2998 = test system: HCC 2998
MDA-MB-231 = test system: MDA-MB-231
SF-268 = test system: SF-268
UO-31 = test system: UO-31
HOP-62 = test system: HOP-62
M14 = test system: M14
OVCAR-3 = test system: OVCAR-3
EKVX = test system: EKVX
SN12C = test system: SN12C
OVCAR-5 = test system: OVCAR-5
A498 = test system: A498
NCI-H23 = test system: NCI-H23
NCI-H522 = test system: NCI-H522
SK-OV-3 = test system: SK-OV-3
KM-20L2 = test system: KM-20L2

Structure (SMILES) | GI50 (OVCAR-4) | GI50 (T47D) | GI50 (HOP-92) | GI50 (SW-620) | GI50 (HCT-15) | GI50 (HCC 2998) | GI50 (MDA-MB-231) | GI50 (SF-268) | GI50 (UO-31) | GI50 (HOP-62) | GI50 (M14) | GI50 (OVCAR-3) | GI50 (EKVX) | GI50 (SN12C) | GI50 (OVCAR-5) | GI50 (A498) | GI50 (NCI-H23) | GI50 (NCI-H522) | GI50 (SK-OV-3) | GI50 (KM-20L2)
C=CC(=O)N1C/C(=C\c2ccc(Cl)cc2)C(=O)/C(=C/c2ccc(Cl)cc2)C1 | 0.286 µM (active) | 2 µM (inactive) | 1.54 µM (inactive) | 0.15 µM (active) | 0.182 µM | 0.296 µM (active) | 0.255 µM (active) | 0.221 µM (active) | 0.335 µM (active) | 0.317 µM (active) | 0.255 µM (active) | 0.31 µM (active) | 0.885 µM (active) | 0.313 µM (active) | 0.641 µM (active) | 0.494 µM (active) | 0.492 µM (active) | 0.514 µM (active) | 0.656 µM (active) | 
c1ccc(CSCCc2ccncc2)cc1 | 44 µM (inactive) | 90.6 µM (inactive) | 15.2 µM (inactive) | > 100 µM (inactive) | > 100 µM | > 100 µM (inactive) | 15.8 µM (inactive) | > 100 µM (inactive) | > 100 µM (inactive) | > 100 µM (inactive) | > 100 µM (inactive) | > 100 µM (inactive) | 67.9 µM (inactive) | > 100 µM (inactive) | > 100 µM (inactive) | > 100 µM (inactive) | > 100 µM (inactive) | 69 µM (inactive) | > 100 µM (inactive) | 
CCN(C(C)=O)c1cnc(/C=N/NC(N)=S)c2ccccc12 | 9.31 µM (inactive) | 5.69 µM (inactive) | > 40.4 µM (inactive) | 5.68 µM (inactive) | 2.25 µM | 11 µM (inactive) | 18.6 µM (inactive) | 1.58 µM (inactive) | 1.81 µM (inactive) | 5.61 µM (inactive) | 2.58 µM (inactive) | 2.58 µM (inactive) | 4.29 µM (inactive) | 3.21 µM (inactive) | > 20 µM (inactive) | 19.8 µM (inactive) | 3.36 µM (inactive) | 2.95 µM (inactive) | 3.65 µM (inactive) | 
Cc1ccc2cccc(OC(=O)c3cc4c(cc3Cl)Sc3nccn3S4(=O)=O)c2n1 | 11.3 µM (inactive) | 4.44 µM (inactive) | 14.6 µM (inactive) | 9.71 µM (inactive) | 5.26 µM | 5.75 µM (inactive) | 14.1 µM (inactive) | 6.98 µM (inactive) | 2.05 µM (inactive) | 0.661 µM (active) | 8.79 µM (inactive) | 2.75 µM (inactive) | 16.7 µM (inactive) | 12.8 µM (inactive) | 23.8 µM (inactive) | 17.7 µM (inactive) | 16.3 µM (inactive) | 9.82 µM (inactive) | 22.8 µM (inactive) | 
C#CC1(OC(C)=O)CCC2C3CC=C4C=C(OC(C)=O)CCC4(C)C3CCC21C (stereo not drawn) | 19.4 µM (inactive) | 61.5 µM (inactive) | 16.1 µM (inactive) | 23.4 µM (inactive) | 23.3 µM | 16 µM (inactive) | 24.2 µM (inactive) | 23.8 µM (inactive) | 23.1 µM (inactive) | 44.9 µM (inactive) | 26.7 µM (inactive) | 20 µM (inactive) | 30.5 µM (inactive) | 19.5 µM (inactive) | 34.7 µM (inactive) | 46.6 µM (inactive) | 18.3 µM (inactive) | 17.4 µM (inactive) | 36.2 µM (inactive) | 
C(=C(c1ccc(OC2CCCCO2)cc1)c1ccc(OC2CCCCO2)cc1)c1ccccc1 (stereo not drawn) | 0.392 µM (active) | 0.526 µM (active) | 0.524 µM (active) | 0.54 µM (active) | 0.8 µM | 0.723 µM (active) | 0.361 µM (active) | 1.09 µM (active) | 0.895 µM (active) | 0.925 µM (active) | 0.697 µM (active) | 0.577 µM (active) | 0.456 µM (active) | 1.02 µM (active) | 1.06 µM (active) | 1.31 µM (inactive) | 0.546 µM (active) | 1.09 µM (active) | 1.29 µM (inactive) | 
O=C(O)C(SC1=NC(=O)C2(NN1)c1ccccc1-c1ccccc12)SC1=NC(=O)C2(NN1)c1ccccc1-c1ccccc12 | > 10 µM (inactive) | 6.89 µM (inactive) | > 10 µM (inactive) | > 10 µM (inactive) | > 10 µM | > 10 µM (inactive) | > 10 µM (inactive) | > 10 µM (inactive) | > 10 µM (inactive) | > 10 µM (inactive) | > 10 µM (inactive) | > 10 µM (inactive) | 9.64 µM (inactive) | > 10 µM (inactive) | > 10 µM (inactive) | > 10 µM (inactive) | > 10 µM (inactive) | > 10 µM (inactive) | > 10 µM (inactive) | 
O=C(/C=C/c1ccc(O)c(O)c1)NC(CO)C(=O)O (stereo not drawn) | > 100 µM (inactive) | > 100 µM (inactive) | 3.72 µM (inactive) | > 100 µM (inactive) | 1.08 µM | > 100 µM (inactive) | > 100 µM (inactive) | > 100 µM (inactive) | > 100 µM (inactive) | > 100 µM (inactive) | > 100 µM (inactive) | > 100 µM (inactive) | > 100 µM (inactive) | > 100 µM (inactive) | > 100 µM (inactive) | > 100 µM (inactive) | > 100 µM (inactive) | > 100 µM (inactive) | > 100 µM (inactive) | 
Cc1cn(C2CCC(CO)(CF)O2)c(=O)[nH]c1=O (stereo not drawn) | > 100 µM (inactive) | > 100 µM (inactive) | > 100 µM (inactive) | > 100 µM (inactive) | > 100 µM | > 100 µM (inactive) | > 100 µM (inactive) | > 100 µM (inactive) | > 100 µM (inactive) | > 100 µM (inactive) | > 100 µM (inactive) | > 100 µM (inactive) | > 100 µM (inactive) | > 100 µM (inactive) | > 100 µM (inactive) | > 100 µM (inactive) | > 100 µM (inactive) | > 100 µM (inactive) | > 100 µM (inactive) | 
COc1ccc2c(c1)CCN1CCc3ccccc3CC21 (stereo not drawn) | > 100 µM (inactive) | 43.7 µM (inactive) | 20.5 µM (inactive) | 45.3 µM (inactive) | 48.2 µM | 21.2 µM (inactive) | 52.2 µM (inactive) | 24.8 µM (inactive) | 11 µM (inactive) | 72.8 µM (inactive) | 18.2 µM (inactive) | 72.4 µM (inactive) | > 100 µM (inactive) | 73.5 µM (inactive) | 30.3 µM (inactive) | 30 µM (inactive) | 39 µM (inactive) | 67.3 µM (inactive) | 64.6 µM (inactive) | 
CCOP(=O)(OCC)/C(C#N)=C/c1c(C)[nH]c2ccccc12 | > 100 µM (inactive) | > 100 µM (inactive) | > 100 µM (inactive) | > 100 µM (inactive) | > 100 µM | > 100 µM (inactive) | > 100 µM (inactive) | > 100 µM (inactive) | 30.4 µM (inactive) | > 100 µM (inactive) | > 100 µM (inactive) | > 100 µM (inactive) | > 100 µM (inactive) | > 100 µM (inactive) | > 100 µM (inactive) | > 100 µM (inactive) | > 100 µM (inactive) | > 100 µM (inactive) | > 100 µM (inactive) | 
COc1c2c3c4c(c(OC)c(=O)c5c(O)cc(OC)c(c6c(OC)cc(O)c(c1=O)c63)c54)C(C(C)O)C2C(C)O (stereo not drawn) | 1.32 µM (inactive) | 1.18 µM (inactive) | 0.421 µM (active) | 0.522 µM (active) | 1.2 µM | 0.431 µM (active) | 1.84 µM (inactive) | 1.07 µM (active) | 0.39 µM (active) | 0.689 µM (active) | 1.07 µM (active) | 0.871 µM (active) | 0.944 µM (active) | 0.92 µM (active) | 1.28 µM (inactive) | 0.918 µM (active) | 0.798 µM (active) | 0.415 µM (active) | 1.31 µM (inactive) | 
O=C(Oc1ccc2c(-c3ccccc3)c(C(=O)Nc3ccc(Cl)cc3)c(=O)oc2c1)c1ccccc1 |  |  |  | > 100 µM (inactive) | > 100 µM |  |  |  | > 100 µM (inactive) | > 100 µM (inactive) | > 100 µM (inactive) | > 100 µM (inactive) | > 100 µM (inactive) | > 100 µM (inactive) |  |  | > 100 µM (inactive) | > 100 µM (inactive) | > 100 µM (inactive) | > 100 µM (inactive)
CN(C)/C=N\c1cccc2c1NSN2 | > 100 µM (inactive) | > 100 µM (inactive) | > 100 µM (inactive) | > 100 µM (inactive) | > 100 µM | > 100 µM (inactive) | > 100 µM (inactive) | > 100 µM (inactive) | > 100 µM (inactive) | > 100 µM (inactive) | > 100 µM (inactive) | > 100 µM (inactive) | > 100 µM (inactive) | > 100 µM (inactive) | > 100 µM (inactive) | > 100 µM (inactive) | > 100 µM (inactive) | > 100 µM (inactive) | > 100 µM (inactive) | 
COc1cccc(/C=C\c2ccc(O)cc2)c1 | 23.7 µM (inactive) | 18.7 µM (inactive) | 18.2 µM (inactive) | 15.2 µM (inactive) | 23.7 µM | 23.8 µM (inactive) | 30.1 µM (inactive) | 28.2 µM (inactive) | 5.4 µM (inactive) | 34.6 µM (inactive) | 17.5 µM (inactive) | 16.8 µM (inactive) | 30.2 µM (inactive) | 22.9 µM (inactive) | 62.8 µM (inactive) | 28.3 µM (inactive) | 15.1 µM (inactive) | 7.06 µM (inactive) | 36.5 µM (inactive) | 
